Several values for one entry are separate records, joined by “and”; a condition that tells them apart may be missing. Equal values may be shown once. Read-outs that look alike come from different tables or passages of the source.

The assay concerns Fusarium culmorum. Description: Fusarium culmorum / liquid culture. It is filed as cell-based. The method, then: Mycelia fragments or conidia suspensions of a fungus, prepared either freshly from liquid cultures of the fungus or from cryogenic storage, were directly mixed into nutrient broth. DMSO solutions of the test compound (max. 10 mg/ml) was diluted with 0.025% Tween20 by factor 50 and 10 μl of this solution was pipetted into a microtiter plate (96-well format). […] The test plates were incubated in the dark at 24° C. and 96% rh. The inhibition of fungal growth was determined photometrically and visually after 2-4 days, depending on the pathosystem, and percent antifungal activity relative to the untreated check was calculated.
Conidia of the fungus from cryogenic storage were directly mixed into nutrient broth (PDB potato dextrose broth). After placing a (DMSO) solution of test compound into a microtiter plate (96-well format), the nutrient broth containing the fungal spores was added.

With `CON(C(=O)c1cn(C)nc1C(F)F)C(C)Cc1c(Cl)cc(Cl)cc1Cl` (centres unmarked) [Compound 1.001, 3-(difluoromethyl)-N-methoxy-1-methyl-N-[1-methyl-2-(2,4,6-trichlorophenyl)ethyl]pyrazole-4-carboxamide], the observed % activity reads like this: (1.001 0.0125 ppm) 11% and 16% and 7% and 10% and 6%; (1.001 0.0250 ppm) 24% and 28% and 34%; (1.001 0.0500 ppm) 46% and 54%; (1.001 0.1000 ppm) 50% and 56% and 52% and 57%. In addition, under “Fusarium culmorum, 1.001 0.0063 ppm, read-out: observed % activity”, the inhibition at 0.0063 ppm worked out at 9%. Further, the inhibition at 0.05 ppm reads like this: (Fusarium culmorum, 1.001 0.0500 ppm (Table B54), read-out: observed % activity) 51%; (Fusarium culmorum, 1.001 0.0500 ppm, read-out: observed % activity) 49%; (Fusarium culmorum, B3.3, 1.001 0.0500 ppm, read-out: observed % activity) 48%; (Fusarium culmorum, B5.3, 1.001 0.0500 ppm, read-out: observed % activity) 39%. Also, the inhibition at 0.1 ppm (Fusarium culmorum, 1.001 0.1000 ppm (Table B54), read-out: observed % activity) amounted to 55%; the inhibition at 0.1 ppm (Fusarium culmorum, 1.001 0.1000 ppm, read-out: observed % activity) stood at 58%; the inhibition at 0.1 ppm (Fusarium culmorum, B3.3, 1.001 0.1000 ppm, read-out: observed % activity) was found to be 55%. Besides, the inhibition at 0.2 ppm came to 60% (Fusarium culmorum, 1.001 0.2000 ppm (Table B54), read-out: observed % activity); 60% (Fusarium culmorum, 1.001 0.2000 ppm, read-out: observed % activity); 59% (Fusarium culmorum, B3.3, 1.001 0.2000 ppm, read-out: observed % activity). Besides, the inhibition at 0.025 ppm by setting is: (Fusarium culmorum, B3.3, 1.001 0.0250 ppm, read-out: observed % activity) 19%; (Fusarium culmorum, B5.3, 1.001 0.0250 ppm, read-out: observed % activity) 9%.

Source of the values: US10588315B2, “Fungicidal compositions” (Syngenta Participations AG, priority 2012, dated 2020).
